One cell line from the supplement of paper PMC10307832 can be followed below.

Holding throughout (experiment): relative viability (nuclei count vs DMSO), 5 days (fraction); higher = more cells survive
Compound in test [1]: CN[C@@H]1C[C@H]2O[C@@](C)([C@@H]1OC)n1c3ccccc3c3c4c(c5c6ccccc6n2c5c31)C(=O)NC4 [Staurosporine] + Cc1nc(Nc2ncc(C(=O)Nc3c(C)cccc3Cl)s2)cc(N2CCN(CCO)CC2)n1 [Dasatinib] (partner 0.075 µM)
In short, it runs like this:
(§1)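 Relative viability equals treated-well nuclei counts divided by vehicle-well nuclei counts. Counts came from 4× images of lung cancer cell lines grown in 1536-well plates for 5 days after pin-tool dosing on the day after seeding. Dosing used one drug alone or a fixed anchor-drug dose plus five library-drug doses (not always all listed) in √10 steps, and values are medians of duplicate plates.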

Compound in test [2]: CN[C@@H]1C[C@H]2O[C@@](C)([C@@H]1OC)n1c3ccccc3c3c4c(c5c6ccccc6n2c5c31)C(=O)NC4 [Staurosporine] + CC(C)C[C@H](NC(=O)[C@H](Cc1ccccc1)NC(=O)c1cnccn1)B(O)O [Bortezomib] (partner 0.002 µM)
The essentials: as §1

Compound in test [3]: CC1=C(CC(=O)O)c2cc(F)ccc2/C1=C\c1ccc([S+](C)[O-])cc1 [Sulindac] + CCNC(=O)c1noc(-c2cc(C(C)C)c(O)cc2O)c1-c1ccc(CN2CCOCC2)cc1 [Luminespib] (partner 0.01 µM)
In short, it runs like this:
as §1

Compound in test [4]: CC1=C(CC(=O)O)c2cc(F)ccc2/C1=C\c1ccc([S+](C)[O-])cc1 [Sulindac] + Nc1ncn([C@H]2C[C@H](O)[C@@H](CO)O2)c(=O)n1 [Decitabine] (partner 2 µM)
In short, it runs like this: as §1

Turning to UMC-11, the relative viability stood at 0.508 in test [1] (first compound 0.005 µM); 0.149 in test [1] (first compound 0.05 µM); 0.114 in test [1] (first compound 0.1581 µM); 0.0934 in test [1] (first compound 0.5 µM); 0.664 in test [2] (first compound 0.005 µM); 0.131 in test [2] (first compound 0.01581 µM). Besides, the relative viability in test [2] (first compound 0.05 µM) stood at 0.454; in test [2] (first compound 0.1581 µM), 0.0878; in test [2] (first compound 0.5 µM), 0.0678; in test [3] (first compound 0.08 µM) it was 1.27; in test [3] (first compound 0.253 µM), 1.12; in test [3] (first compound 0.8 µM), 0.717. Also, the relative viability was determined as 1.01 in test [3] (first compound 2.53 µM); 1.13 in test [3] (first compound 8 µM); 0.595 in test [4] (first compound 0.08 µM); 0.627 in test [4] (first compound 0.253 µM); 0.535 in test [4] (first compound 0.8 µM); 0.584 in test [4] (first compound 2.53 µM). The relative viability in test [4] (first compound 8 µM) was found to be 0.65.
